Measured values reported in patent US7816408B2, “Calcium receptor active compounds” (NPS Pharmaceuticals, Inc., priority 2002, dated 2010).
pEC50: −log10 of the molar value.

Legend:
human calcium receptor = biological target: T1, human calcium receptor (Homo sapiens, UniProt P41180); experiment: Activity on calcium receptors: fluo-3 fluorescence in HEK293 cells transfected with human calcium receptor gene; type: cell-based; settings: HEK293 cells transfected with plasmid pHuPCaR4.0 (human calcium receptor gene), loaded with fluo-3; 1 mM CaCl2, 1 mM MgCl2
T1 construct: expressed in transfected cells; host or cells: HEK293
T1 sequence (P41180 20-1078): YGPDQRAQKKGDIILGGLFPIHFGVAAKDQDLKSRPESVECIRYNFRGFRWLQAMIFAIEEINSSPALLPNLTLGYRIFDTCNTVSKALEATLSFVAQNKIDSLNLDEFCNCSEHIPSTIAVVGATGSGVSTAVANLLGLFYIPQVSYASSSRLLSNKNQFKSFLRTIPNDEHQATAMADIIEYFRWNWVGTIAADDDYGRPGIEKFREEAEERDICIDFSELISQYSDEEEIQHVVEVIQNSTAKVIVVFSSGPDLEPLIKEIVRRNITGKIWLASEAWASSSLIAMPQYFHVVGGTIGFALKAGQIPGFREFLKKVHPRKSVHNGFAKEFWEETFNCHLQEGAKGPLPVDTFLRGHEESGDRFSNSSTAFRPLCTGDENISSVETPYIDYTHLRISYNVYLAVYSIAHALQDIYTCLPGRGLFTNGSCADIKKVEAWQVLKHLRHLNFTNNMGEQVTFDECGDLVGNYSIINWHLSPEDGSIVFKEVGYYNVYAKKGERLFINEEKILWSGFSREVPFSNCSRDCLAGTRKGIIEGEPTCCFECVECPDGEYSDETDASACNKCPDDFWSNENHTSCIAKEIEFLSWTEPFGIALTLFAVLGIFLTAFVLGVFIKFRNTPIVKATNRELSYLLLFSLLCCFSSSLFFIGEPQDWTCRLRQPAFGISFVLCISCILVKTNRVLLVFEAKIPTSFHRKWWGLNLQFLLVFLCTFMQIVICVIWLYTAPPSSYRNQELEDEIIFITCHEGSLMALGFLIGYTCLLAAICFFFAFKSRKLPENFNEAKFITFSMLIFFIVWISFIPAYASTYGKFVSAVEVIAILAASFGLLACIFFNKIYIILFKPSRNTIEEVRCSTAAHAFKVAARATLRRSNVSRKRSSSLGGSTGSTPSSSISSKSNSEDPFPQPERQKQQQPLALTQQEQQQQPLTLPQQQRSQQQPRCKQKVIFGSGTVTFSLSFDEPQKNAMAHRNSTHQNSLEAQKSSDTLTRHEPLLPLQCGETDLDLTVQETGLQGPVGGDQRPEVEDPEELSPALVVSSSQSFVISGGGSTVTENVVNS
Method in brief: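 HEK293 cells transfected with human calcium receptor plasmid, loaded 1 h at 37 °C with about 5 μM fluo-3/AM. Cells then rinsed into HEPES-buffered HBSS with 1 mM CaCl2 and 1 mM MgCl2. Fluorescence read at 485/540 nm after compound addition.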

normal male SD rats = experiment: Plasma Ca^2+ level of rats after single oral administration; type: in vivo; settings: rat, mean of six animals; for Plasma Ca^2+ (mmol/l) 1 hr: 1 hr after single oral dose 30 μmol/kg; for Plasma Ca^2+ (mmol/l) 2 hr: 2 hr after single oral dose 30 μmol/kg; for Plasma Ca^2+ (mmol/l) 4 hr: 4 hr after single oral dose 30 μmol/kg; for Plasma Ca^2+ (mmol/l) 8 hr: 8 hr after single oral dose 30 μmol/kg; for Plasma Ca^2+ (mmol/l) 24 hr: 24 hr after single oral dose 30 μmol/kg; for Plasma Ca^2+ (mmol/l) 0 hr: 0 hr = before oral administration of 30 μmol/kg
Method in brief: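 Normal male SD rats (n=6/group) received a single oral dose of 30 μmol/kg in 10% cyclodextrin or, for some compounds, 1% sodium-CMC; vehicle controls received 2.5 ml/kg. Tail blood was drawn pre-dose and at 30 min and 1, 2, 4, 8 and 24 h for plasma Ca^2+ and serum PTH. PTH was compared with vehicle by Steel's test.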

[1] = vehicle 10% cyclodextrin (** 1% sodium-CMC)

Compound | pEC50 (human calcium receptor) | Plasma Ca^2+ (mmol/l) 1 hr (normal male SD rats; [1]) [mmol/L] | Plasma Ca^2+ (mmol/l) 2 hr (normal male SD rats; [1]) [mmol/L] | Plasma Ca^2+ (mmol/l) 4 hr (normal male SD rats; [1]) [mmol/L] | Plasma Ca^2+ (mmol/l) 8 hr (normal male SD rats; [1]) [mmol/L] | Plasma Ca^2+ (mmol/l) 24 hr (normal male SD rats; [1]) [mmol/L] | Plasma Ca^2+ (mmol/l) 27 hr (footnote *b, 24 hr) (normal male SD rats; 27 hr after single oral dose 30 μmol/kg, vehicle 10% cyclodextrin (** 1% sodium-CMC)) | Plasma Ca^2+ (mmol/l) 48 hr (normal male SD rats; 48 hr after single oral dose 30 μmol/kg, vehicle 10% cyclodextrin) [mmol/L] | Plasma Ca^2+ (mmol/l) 0 hr (normal male SD rats; [1]) [mmol/L]
C[C@@H](NCCC(=O)N(Cc1ccc(Cl)cc1)Cc1ccc(Cl)c(Cl)c1)c1cccc2ccccc12 [Compound K-2267, N1-(4-chlorobenzyl)-N1-(3,4-dichlorobenzyl)-3-{[(1R)-1-(1-naphthyl)ethyl]amino}propanamide] | 7.85 | 1.347 | 1.212 | 1.027 | 1.022 | 1.312 |  |  | 
C[C@@H](NCCC(=O)N(Cc1ccc(Cl)cc1)Cc1ccc(OC(F)(F)F)cc1)c1cccc2ccccc12 [Compound K-2283, N1-(4-chlorobenzyl)-N1-[4-(trifluoromethoxy)benzyl)-3-{[(1R)-1-(1-naphthyl)ethyl]-amino}propanamide] | 7.03 | 1.395 | 1.305 | 1.210 | 1.253 |  |  |  | 
C[C@@H](NCCCCCSc1cc(Cl)c(Cl)cc1Cl)c1cccc2ccccc12 [Compound K-2282, N-[(1R)-1-(1-naphthyl)ethyl]-N-{5-[(2,4,5-trichlorophenyl)thio]pentyl}amine] | 6.47 | 1.425 | 1.298 | 1.168 | 1.078 |  | 1.230*^b mmol/l |  | 
C[C@@H](NCCCCCSc1ccc(F)cc1)c1cccc2ccccc12 [Compound K-2052, N-{5-[(4-fluorophenyl)thio]pentyl}-N-[(1R)-1-(1-naphthyl)ethyl]amine] | 5.24 | 1.283 | 1.187 | 1.087 | 1.185 |  |  |  | 
C[C@@H](NCCCCSc1ccc(OC(F)(F)F)cc1)c1cccc2ccccc12 [Compound K-2287, N-[(1R)-1-(1-naphthyl)ethyl]-N-(4-{[4-(trifluoromethoxy)phenyl)thio]butyl)amine] | 7.21 | 1.180 | 1.042 | 0.955 | 0.950 | 1.200 |  | 1.392 | 
CCOc1ccc2sc(SCCCCN[C@H](C)c3cccc4ccccc34)nc2c1 [Compound K-2271] | 6.85 | 1.278 | 1.227 | 1.128 | 1.197 |  |  |  | 1.428
Cc1ccc(SC(C)CCCN[C@H](C)c2cccc3ccccc23)c(C)c1 (stereo partly drawn) [Compound K-2303] | 6.46 | 1.255 | 1.165 | 1.020 | 1.032 |  |  |  | 1.415
Cc1ccc(SCCCCN[C@H](C)c2cccc3ccccc23)c(C)c1 [Compound K-2302, N-{4-[(2,4-dimethylphenyl)thio]butyl}-N-[(1R)-1-(1-naphthyl)ethyl]amine] | 6.30 | 1.238 | 1.130 | 0.978 | 1.010 |  |  |  | 
C[C@@H](NCCC(=O)N(Cc1ccc(Cl)cc1)Cc1ccccc1Cl)c1cccc2ccccc12 [Compound K-2262, N1-(2-chlorobenzyl)-N1-(4-chlorobenzyl)-3-{[(1R)-1-(1-naphthyl)ethyl]amino}propanamide] | 7.08 | 1.390 | 1.260 | 1.138 | 1.142 |  |  |  | 
